Data reported in ChEMBL document CHEMBL4052759, “Discovery of DS79182026: A potent orally active hepcidin production inhibitor” (Bioorg Med Chem Lett, 2017).
Values belong to the molecule of their own block, whether it stands above or below them.

What was measured:
[1] = biological target: Mitogen-activated protein kinase 3 (Homo sapiens) (UniProt P27361); test: Inhibition of Erk1 (unknown origin) at 0.078 uM relative to control
[2] = biological target: Fibroblast growth factor receptor 3 (Homo sapiens) (UniProt P22607); test: Inhibition of FGFR3 (unknown origin) at 0.49 uM relative to control
[3] = biological target: Ribosomal protein S6 kinase alpha-1 (Homo sapiens) (UniProt Q15418); test: Inhibition of RSK1 (unknown origin) at 0.49 uM relative to control
[4] = system: Epidermal growth factor receptor (Homo sapiens), P00533 [T790M]; test: Inhibition of EGFR T790M mutant (unknown origin) at 0.49 uM relative to control
[5] = biological target: Death-associated protein kinase 1 (Homo sapiens) (UniProt P53355); test: Inhibition of DAPK1 (unknown origin) at 0.49 uM relative to control
[6] = biological target: Serine/threonine-protein kinase PAK 4 (Homo sapiens) (UniProt O96013); test: Inhibition of PAK4 (unknown origin) at 0.49 uM relative to control
[7] = biological target: Protein kinase C beta type (Homo sapiens) (UniProt P05771); test: Inhibition of PKC-beta2 (unknown origin) at 0.49 uM relative to control
[8] = biological target: Casein kinase I isoform gamma-2 (Homo sapiens) (UniProt P78368); test: Inhibition of Casein kinase 1g2 (unknown origin) at 0.49 uM relative to control
[9] = biological target: Serine/threonine-protein kinase MARK2 (Homo sapiens) (UniProt Q7KZI7); test: Inhibition of MARK2 (unknown origin) at 0.49 uM relative to control
[10] = system: Epidermal growth factor receptor (Homo sapiens), P00533 [L858R,T790M]; test: Inhibition of EGFR T790M/L858R double mutant (unknown origin) at 0.49 uM relative to control
[11] = biological target: Calcium/calmodulin-dependent protein kinase type 1D (Homo sapiens) (UniProt Q8IU85); test: Inhibition of CamK1d (unknown origin) at 0.49 uM relative to control
[12] = system: Fibroblast growth factor receptor 4 (Homo sapiens), P22455 [V550L]; test: Inhibition of FGFR4 V550L mutant (unknown origin) at 0.45 uM relative to control
[13] = biological target: Ephrin type-B receptor 4 (Homo sapiens) (UniProt P54760); test: Inhibition of EPHB4 (unknown origin) at 0.45 uM relative to control
[14] = biological target: Ephrin type-A receptor 2 (Homo sapiens) (UniProt P29317); test: Inhibition of EPHA2 (unknown origin) at 0.45 uM relative to control
[15] = biological target: Mitogen-activated protein kinase 3 (Homo sapiens) (UniProt P27361); test: Inhibition of Erk1 (unknown origin) at 0.45 uM relative to control
[16] = biological target: Casein kinase I isoform gamma-1 (Homo sapiens) (UniProt Q9HCP0); test: Inhibition of CK1-gamma1 (unknown origin) at 0.45 uM relative to control
[17] = biological target: Insulin receptor (Homo sapiens) (UniProt P06213); test: Inhibition of INSR (unknown origin) at 0.45 uM relative to control
[18] = system: Mitogen-activated protein kinase 14 (Homo sapiens), Q16539 [T106M]; test: Inhibition of SAPK2a T106M mutant (unknown origin) at 0.45 uM relative to control
[19] = biological target: Casein kinase I isoform epsilon (Homo sapiens) (UniProt P49674); test: Inhibition of CK1-epsilon (unknown origin) at 0.45 uM relative to control
[20] = biological target: Cyclin-dependent kinase 9 (Homo sapiens) (UniProt P50750); test: Inhibition of CDK9 (unknown origin) at 0.45 uM relative to control
[21] = biological target: Macrophage-stimulating protein receptor (Homo sapiens) (UniProt Q04912); test: Inhibition of MST1R (unknown origin) at 0.45 uM relative to control
[22] = biological target: ALK tyrosine kinase receptor (Homo sapiens) (UniProt Q9UM73); test: Inhibition of ALK (unknown origin) at 0.45 uM relative to control
[23] = biological target: Serine/threonine-protein kinase pim-1 (Homo sapiens) (UniProt P11309); test: Inhibition of PIM1 (unknown origin) at 0.45 uM relative to control
[24] = biological target: Leukocyte tyrosine kinase receptor (Homo sapiens) (UniProt P29376); test: Inhibition of LTK (unknown origin) at 0.45 uM relative to control
[25] = biological target: Ribosomal protein S6 kinase alpha-3 (Homo sapiens) (UniProt P51812); test: Inhibition of RSK2 (unknown origin) at 0.45 uM relative to control
[26] = biological target: Serine/threonine-protein kinase D3 (Homo sapiens) (UniProt O94806); test: Inhibition of PKD3 (unknown origin) at 0.45 uM relative to control
[27] = biological target: Tyrosine-protein kinase Fgr (Homo sapiens) (UniProt P09769); test: Inhibition of FGR (unknown origin) at 0.45 uM relative to control
[28] = biological target: Calcium/calmodulin-dependent protein kinase type II subunit alpha (Homo sapiens) (UniProt Q9UQM7); test: Inhibition of CaMK2a (unknown origin) at 0.45 uM relative to control
[29] = biological target: Ephrin type-B receptor 1 (Homo sapiens) (UniProt P54762); test: Inhibition of EPHB1 (unknown origin) at 0.45 uM relative to control
[30] = biological target: Homeodomain-interacting protein kinase 3 (Homo sapiens) (UniProt Q9H422); test: Inhibition of HIPK3 (unknown origin) at 0.45 uM relative to control
[31] = biological target: T1, cGMP-dependent protein kinase 1 (Homo sapiens) (UniProt Q13976); test: Inhibition of PKG-alpha (unknown origin) at 0.45 uM relative to control
T1 sequence (whole entry): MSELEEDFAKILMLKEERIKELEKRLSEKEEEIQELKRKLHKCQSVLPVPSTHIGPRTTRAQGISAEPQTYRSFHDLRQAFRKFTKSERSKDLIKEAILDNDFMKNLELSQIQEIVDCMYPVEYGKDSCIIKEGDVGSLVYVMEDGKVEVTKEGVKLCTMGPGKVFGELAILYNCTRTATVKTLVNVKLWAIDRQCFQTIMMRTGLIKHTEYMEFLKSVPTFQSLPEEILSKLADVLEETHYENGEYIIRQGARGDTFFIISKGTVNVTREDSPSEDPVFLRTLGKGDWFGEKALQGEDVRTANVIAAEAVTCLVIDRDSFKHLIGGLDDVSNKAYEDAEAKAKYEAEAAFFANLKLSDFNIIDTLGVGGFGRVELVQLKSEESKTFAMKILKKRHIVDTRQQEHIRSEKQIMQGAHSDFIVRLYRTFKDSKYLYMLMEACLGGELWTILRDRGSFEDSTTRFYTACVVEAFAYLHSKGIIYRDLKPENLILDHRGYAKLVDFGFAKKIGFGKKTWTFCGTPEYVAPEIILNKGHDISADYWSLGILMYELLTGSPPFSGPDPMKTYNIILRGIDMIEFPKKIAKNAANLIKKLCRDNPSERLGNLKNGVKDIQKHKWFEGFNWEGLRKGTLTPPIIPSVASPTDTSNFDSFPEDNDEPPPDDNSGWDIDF

inhibition [1]: 8%
SMILES: COC(=O)Nc1noc2cc(-c3c(-c4ccccn4)n[nH]c3C)ccc12

inhibition [2]: -0.3%
inhibition [3]: 2.3%
inhibition [4]: 0.7%
inhibition [6]: -3%
inhibition [7]: 5.3%
inhibition [8]: 1%
inhibition [9]: -1%
inhibition [10]: -1%
inhibition [11]: -4.3%
SMILES: Cc1[nH]nc(C2CC2)c1-c1ccc2c(NC(=O)C3CC3)noc2c1
inhibition [5]: -2.7%

inhibition [12]: 2.7%
inhibition [13]: 8%
inhibition [14]: 8%
inhibition [15]: 1.3%
inhibition [16]: 5%
inhibition [17]: 3%
inhibition [18]: 1.3%
inhibition [19]: 2.7%
inhibition [20]: 9.3%
inhibition [21]: -1%
inhibition [22]: 26%
inhibition [23]: 4%
inhibition [24]: 0%
inhibition [25]: 36%
inhibition [26]: 0.3%
inhibition [27]: 13%
inhibition [28]: 2.7%
inhibition [29]: 6.7%
inhibition [30]: 2.7%
inhibition [31]: -1.7%
SMILES: Cc1n[nH]c(C)c1-c1ccc2c(NC(=O)c3ccc(N4CCN(C)CC4)cc3)n[nH]c2c1
